# Key:
# [1] = test system: A. baumannii ATCC 17978 (SEN) and A. baumannii ATCC BAA-1605 (MDR); assay: Adaptive laboratory evolution (ALE), relative MIC of evolved lines; format: cell-based, Acinetobacter baumannii; settings: for Relative MIC (log10): AB-SEN (Acinetobacter baumannii ATCC 17978)
# From the text: Using the same set of bacterial strains, we initiated adaptive laboratory evolution with the aim to maximize the level of antibiotic resistance in the populations achieved during a longer, but fixed time period.
# An established protocol for adaptive laboratory evolution[46],[73] was followed to propagate populations with the highest resistance levels. Starting with an antibiotic concentration that caused approximately 50% growth inhibition, ten parallel populations for each antibiotic-ancestor strain combination were grown for 72 hours at 37 °C with continuous shaking (300 RPM). MHB broth medium was used unless stated otherwise. After each incubation, 20 µl of each culture was transferred to four new wells containing fresh medium with increasing antibiotic concentrations (0.5×, 1×, 1.5×, and 2.5× the previous concentration) in a chessboard layout to monitor potential cross-contamination. Growth was monitored by measuring OD600 using a Biotek Synergy 2 microplate reader, and only populations grown in the highest drug concentration with an OD600 > 0.2 were transferred further.
# A robotic liquid handling system was used to automatically prepare a 11 to 16-step serial dilution in 384-well microtiter plates (Greiner). A final concentration of 5 × 10^5 bacterial cells per mL were inoculated into each well containing 60 µL MHB medium. Bacterial cultures were incubated at 37 °C with continuous shaking (Infors shaker, 900 rpm with 3 mm throw) for 18 hours (2 replicates from each). Cell growth was monitored by measuring the optical density (OD600 values, using Biotek Synergy microplate reader). MIC was defined as the antibiotic concentration of complete growth inhibition (i.e., OD600 < 0.05). Relative MIC was calculated as follows:1 relativeMIC=MICevolved/MICancestor […]
# Supplementary Figure 4. Resistance levels following adaptive laboratory evolution across bacterial strains. The level of resistance was measured as the fold change in relative MIC between evolved and ancestral strains after ~60 days of adaptive laboratory evolution. Data are grouped by bacterial strain (A. baumannii (AB), E. coli (EC), K. pneumoniae (KP), and P. aeruginosa (PA)) and categorized as either multidrug-resistant (MDR) or sensitive (SEN). Each data point represents a laboratory evolved line, and boxplots show the median, first and third quartiles, with whiskers indicating the 5th and 95th percentiles.
# Statistical analysis was performed using two-sided Dunn’s post-hoc test with Benjamini-Hochberg correction for multiple comparisons (****/ ***/ **/ * indicates p < 0.0001/ 0.001/ 0.01/ 0.05). For detailed information on antibiotic and bacterial species, see Supplementary Table 1. For mode of action groups, refer to Table 1. Source data are provided as a Source Data file.
# [2] = test system: E. coli BW25113: pUCacrAB; assay: AcrAB-TolC efflux overexpression screen, relative MIC; format: cell-based, Escherichia coli; settings: pUCacrAB vs empty pUC118 control
# Procedure: Fig. 6 The impact of AcrAB-TolC activity on antibiotic susceptibility. E. coli strains with AcrAB-TolC depletion (BW25113-ΔacrB) and overexpression (BW25113: pUCacrAB) were treated with various antibiotics, and the level of resistance was determined as minimum inhibitory concentration (MIC) relative to a wild-type strain, presented on a logarithmic scale (log2). Each bar represents the mean resistance level (susceptibility, i.e., level of resistance < 0; and resistance, i.e., level of resistance > 0) to antibiotics induced by acrAB overexpression (blue bars; E. coli with a multicopy plasmid of the acrAB genes (pUCacrAB)) and acrB deletion (red bars; mutant E. coli with acrB gene deletion (ΔacrB)) compared to the wild-type. Data are presented as mean values of 3 biological replicates ± SD. […] Detailed information on antibiotic and bacterial strain abbreviations is provided in Supplementary Data 1. Source data are provided as a Source Data file. For information on mode of action groups, refer to Table 1.
# For the efflux deficiency screen, the ΔacrB mutant of E. coli K12 BW25113[86] and its equivalent wild-type control strain with intact gene were utilized. In contrast, BW25113 carrying a multicopy acrAB plasmid (pUCacrAB)[87] and its control strain harboring an empty pUC118 plasmid were used to overexpress the acrAB efflux system. According to established protocols via P1 transduction, the suitable acrB deletion mutant (ΔacrB BW25113) was created, while the pUCacrAB plasmid was kindly provided by Kunihiko Nishino and Akihito Yamaguchi (Osaka University, Osaka, Japan). In a prior study, both strains were employed. Since the copy number of the plasmid carrying the efflux pump is controlled by native promoters, external induction is unnecessary.
# Antibiotic susceptibilities of these strains were evaluated using a modified version of the standard broth dilution method. In 96-well microtiter plates containing fresh MHB medium, or supplemented MS medium in case of SCH79797, ten-step serial dilutions of an antibiotic from a stock solution were made (2 wells per antibiotic concentration per strain). The two wells contained only supplemented media without any antibiotics […]. Strains were incubated overnight at 37 °C with continuous agitation. Additionally, plasmid containing strains were grown in the presence of 100 µg/mL ampicillin. The culture was diluted to yield a cell suspension with 5 ×10^5 cells/mL and then inoculated into the wells of the microtiter plate. To determine the medium’s background OD value, the first column of the 96-well plate contained solely MHB without inoculum. Prior to the measurement, the plates were incubated at 37 °C with continuous shaking at 900 rpm with 3 mm throw. OD600 values were determined in a microplate reader after 18 hours of incubation (Biotek Synergy 2). The minimum inhibitory concentration (MIC) was determined as the lowest concentration of antibiotic at which the OD600 values were less than 0.05 after subtracting the background value. The log2 of the relative MIC was computed using the following equation:2 log2relativeMICpUCacrAB=MICpUCacrAB/MICpUC118 3 log2relativeMICΔacrB=MICΔacrB/MICwt
# [3] = AB-SEN (ATCC 17978), evolved line 1, MIC of evolved line / MIC of ancestor
# [4] = AB-SEN (ATCC 17978), evolved line 2, MIC of evolved line / MIC of ancestor
# [5] = AB-SEN (ATCC 17978), evolved line 3, MIC of evolved line / MIC of ancestor
# [6] = AB-SEN (ATCC 17978), evolved line 4, MIC of evolved line / MIC of ancestor
# [7] = AB-SEN (ATCC 17978), evolved line 5, MIC of evolved line / MIC of ancestor
# [8] = AB-SEN (ATCC 17978), evolved line 6, MIC of evolved line / MIC of ancestor
# [9] = AB-SEN (ATCC 17978), evolved line 7, MIC of evolved line / MIC of ancestor
# [10] = AB-SEN (ATCC 17978), evolved line 8, MIC of evolved line / MIC of ancestor
# [11] = AB-SEN (ATCC 17978), evolved line 9, MIC of evolved line / MIC of ancestor
# [12] = AB-SEN (ATCC 17978), evolved line 10, MIC of evolved line / MIC of ancestor
# [13] = evolved line 2 adapted to the named antibiotic
# [14] = evolved line 4 adapted to the named antibiotic
# [15] = evolved line 5 adapted to the named antibiotic
# [16] = Acinetobacter baumannii ATCC 17978 (AB-SEN), evolved line 1
# [17] = Acinetobacter baumannii ATCC 17978 (AB-SEN), evolved line 2
# [18] = Acinetobacter baumannii ATCC 17978 (AB-SEN), evolved line 3
# [19] = Acinetobacter baumannii ATCC 17978 (AB-SEN), evolved line 4
# [20] = Acinetobacter baumannii ATCC 17978 (AB-SEN), evolved line 5
# [21] = Acinetobacter baumannii ATCC 17978 (AB-SEN), evolved line 6
# [22] = Acinetobacter baumannii ATCC 17978 (AB-SEN), evolved line 7
# [23] = Acinetobacter baumannii ATCC 17978 (AB-SEN), evolved line 8
# [24] = Acinetobacter baumannii ATCC 17978 (AB-SEN), evolved line 9
# [25] = Acinetobacter baumannii ATCC 17978 (AB-SEN), evolved line 10
Compound,"Relative MIC [1, 3]","Relative MIC [1, 4]","Relative MIC [1, 5]","Relative MIC [1, 6]","Relative MIC [1, 7]","Relative MIC [1, 8]","Relative MIC [1, 9]","Relative MIC [1, 10]","Relative MIC [1, 11]","Relative MIC [1, 12]","Relative MIC (log10) [1, 13]","Relative MIC (log10) [1, 14]","Relative MIC (log10) [1, 15]","Relative MIC [1, 16]","Relative MIC [1, 17]","Relative MIC [1, 18]","Relative MIC [1, 19]","Relative MIC [1, 20]","Relative MIC [1, 21]","Relative MIC [1, 22]",other results
Nc1nc(-n2cc(C(=O)O)c(=O)c3cc(F)c(N4CC(O)C4)c(Cl)c32)c(F)cc1F [Delafloxacin],256,128,256,256,512,256,128,64,128,128,2.107,2.408,2.709,256,128,256,256,512,256,128,"Relative MIC (log10) ([1]; evolved line 6 adapted to the named antibiotic): 2.408; Relative MIC (log10) ([1]; evolved line 9 adapted to the named antibiotic): 2.107; Relative MIC [1, 23]: 64; Relative MIC [1, 24]: 128; Relative MIC [1, 25]: 128; Relative MIC (log2) ([2]; replicate 1): 2; Relative MIC (log2) ([2]; replicate 2): 2; Relative MIC (log2) ([2]; replicate 3): 2"
C[C@H]1c2cccc(O)c2C(=O)C2=C(O)[C@]3(O)C(=O)C(C(N)=O)=C(O)[C@@H](N(C)C)[C@@H]3[C@@H](O)[C@@H]21 [Doxycycline],32,64,16,32,32,16,32,32,16,16,1.806,1.505,1.505,32,64,16,32,32,16,32,"Relative MIC (log10) ([1]; evolved line 7 adapted to the named antibiotic): 1.505; Relative MIC (log10) ([1]; evolved line 8 adapted to the named antibiotic): 1.505; Relative MIC [1, 23]: 32; Relative MIC [1, 24]: 16; Relative MIC [1, 25]: 16; Relative MIC (log2) ([2]; replicate 1): 0; Relative MIC (log2) ([2]; replicate 2): 0; Relative MIC (log2) ([2]; replicate 3): 0"

# — paper PMC11845477, “Exploring the principles behind antibiotics with limited resistance” (Nature Communications, 2025)
